In patent US20250244419A1, “INFUSION DEVICE FOR THE PREPARATION AND DELIVERY OF MRI PROBES” (The United States of America, as represented by the …, priority 2022, published 2025):

Assay: Relaxation dynamics of hyperpolarized [1-13C]pyruvate (build-up time Tb, T1)
Format: physicochemical
Settings: for corresponding T1 value: same conditions as build-up
Excerpt: In addition, the relaxation dynamics of the [1-^13C]pyruvate were also studied.
In addition, relaxation dynamics at earth field and 1.8 T are about the same as a non-fluorinated SABRE catalyst T1=28.9±1.6 s and 66.5±7 s, respectively.
In addition, relaxation dynamics at earth field and 1.8 T are about the same as a non-fluorinated SABRE catalyst T1=9.0±1.9 s and 16.0±1.4 s, respectively.

[1] = NFBME / deuterated methanol mixture, catalyst of Example 4
[2] = methanol, catalyst of Example 4, DMSO co-ligand

SMILES: C[13C](=O)C(=O)O [[1-^13C]pyruvate, Sodium [1-^13C]-pyruvate]
- T1 at 1.8 T [1]: 16.0 ± 1.4 s
- T1 at earth field [1]: 9.0 ± 1.9 s
- corresponding T1 value [1]: 11.3 ± 1.3 s
- T1 at 1.8 T [2]: 66.5 ± 7 s
- T1 at earth field [2]: 28.9 ± 1.6 s
- corresponding T1 value [2]: 16.1 ± 0.9 s
